Results on 15 molecules are retold here after patent publication EP4806904A1, “POLYPEPTIDE AND USE THEREOF” (Sichuan Gooddoctor Panxi Pharmaceutical Co. Ltd, priority 2023, dated 2026).

For assay [1], the system named is neural stem cell line C17.2. The assay can be described thus: Proliferation of neural stem cell line C17.2, BrdU, high-content imaging. The class given is cell-based. The settings on record: 100 µg/mL, 48 h; for Proliferation-promoting results: percentage of BrdU-positive cells, significance vs blank control group; for number of BrdU positive cells: vs blank control group, in words. On the procedure: • (1) C17.2 cells were seeded in 96-well plates at a concentration of 1500 cells/100 µL/well. After overnight culture for cell adherence, the cells were treated with drugs; • (2) Drug treatment was applied. The final concentration of the polypeptide of the invention was 100 µg/mL. Meanwhile, butylphthalide (NBP, 5 µM) was set as the positive control. The cells were cultured in the incubator for another 48 h; • (3) BrdU was added at 44 h of treatment to a final concentration of 10 µM. Immunofluorescence staining was performed 4 h later, and the percentage of BrdU-positive cells was statistically analyzed using a high-content cell imaging analysis system.

Assay [2] deals with Brain microvascular endothelial cells (BMECs) and brain microvascular smooth muscle cells (BMVSMCs). Put plainly: In vitro angiogenesis assay, BMEC/BMVSMC co-culture on matrigel. The class given is cell-based, mouse. Conditions: 0.1 mg/L, 48 h. On the procedure:
First, mouse brain microvascular pellets were obtained by differential centrifugation. Brain microvascular endothelial cells (BMECs) and brain microvascular smooth muscle cells (BMVSMCs) were isolated by digestion with collagenase II, respectively, and cultured in a cell incubator with 5% CO2 at 37°C . Cells at passages 3-6 in good growth condition and logarithmic growth phase were selected for the in vitro angiogenesis assay.
One night before the experiment, the high-concentration matrigel was transferred from a -20°C or -80°C refrigerator to a 4°C refrigerator and allowed to thaw slowly overnight in the 4°C refrigerator. Pipette tips required for the formal experiment were sterilized in advance and pre-cooled in a 4°C refrigerator for subsequent use.
On the day of the experiment, the matrigel was added to a 96-well plate 1 h in advance and placed in a 37°C cell incubator until it solidified. Subsequently, the cells were washed 2 times with 2 mL of PBS buffer, followed by digestion with 0.25% trypsin to obtain EC and VSMC pellets, respectively, and cell counting was performed. A uniform cell suspension containing 5×10^3 BMVSMCs and 1×10^3 BMECs per well was then seeded into the 96-well plate pre-coated with the matrigel, and cultured in a 37°C, 5% CO2 cell incubator for 3 days.
During the culture period, tube formation was observed daily. The medium was changed on day 4, followed by treatment with the polypeptide of the invention at 0.1 mg/L or VEGFA at 10/15/20 ng/L for 48 h, respectively.
On day 5, the cell nuclei and live cells were labeled with Hoechst 33342 and Calcein AM, respectively. High-content brightfield and fluorescence imaging were then performed using a high-content screening system. Finally, angiogenesis in each treatment group was analyzed using the Angiogenesis Analyzer plugin for ImageJ, and statistical analysis was carried out with GraphPad Prism 10.

The subject of assay [3] is primary neural stem cells (NSCs). The assay can be described thus: Differentiation of primary neural stem cells, βIII-tubulin fluorescence and Neurite Outgrowth Assay. In kind it is cell-based, SD rats. Conditions: 100 µg/mL; for Longest neurite length / Neurite initiation points (branches) / Number of neurite terminals / Total neurite length / neurite outgrowth (total neurite length, maximum neurite length, neurite terminals, neurite initiation points) / mean fluorescence intensity of the neuronal marker protein βIII-tubulin / Average fluorescence intensity: 4 days; for Longest neurite length / Neurite initiation points (branches) / Number of neurite terminals / Total neurite length / Average fluorescence intensity: significance vs blank control group; for neurite outgrowth (total neurite length, maximum neurite length, neurite terminals, neurite initiation points): Neurite Outgrowth Assay; for neurite outgrowth (total neurite length, maximum neurite length, neurite terminals, neurite initiation points) / mean fluorescence intensity of the neuronal marker protein βIII-tubulin: in words; for mean fluorescence intensity of the neuronal marker protein βIII-tubulin: vs blank control group; for Average fluorescence intensity: βIII-tubulin. On the procedure:
This part of the experiment requires feeding male and female rats in advance, then extracting hippocampal neural stem cells from newborn SD rats within 24 h of birth, culturing them to P3 for identification, and then using them for experiments. • (1) Extraction and culture of primary neural stem cells (NSCs) • (2) NSCs that have been passaged to P3 and have good viability were seeded in differentiation medium (2% FBS+DMEM/F12 1:1 medium) in 48-well plates with a cell concentration of 5×10^4 cells/mL per well. After overnight culture for cell adherence, the cells were treated with drugs; • (3) Drug treatment was applied. The final concentration of the polypeptide of the invention was 100 µg/mL. Meanwhile, nerve growth factor (NGF, 50 ng/mL) was set as the positive control, and the cells were cultured in the incubator for another 4 days; • (4) Immunofluorescence staining (primary antibody βIII-tubulin) was performed after 4 days of treatment. The average fluorescence intensity of βIII-tubulin was analyzed and the Neurite Outgrowth Assay was performed using a high-content cell imaging analysis system.

Setting [4] is: significance vs blank control group.

Where a SMILES comes first, the peptide text is derived from it. [ ]: non-standard residue; d: D form.

`CC(C)C[C@H](NC(=O)[C@H](C)N)C(=O)N1CCC[C@H]1C(=O)N[C@@H](C)C(=O)N1CCC[C@H]1C(=O)NCC(=O)N[C@H](C(=O)N[C@H](CC(C)C)C(=O)O)[C@@H](C)O` [Compound 8, H-Ala-Leu-Pro-Ala-Pro-Gly-Thr-D-Leu-OH] (H-ALPAPGT[dL]-OH): in assay [1], the Proliferation-promoting results was “* (*p < 0.05)”. For the same molecule, in assay [2] (setting [4]), the Branch length result was “** (**p < 0.01)” and the Number of intersections entry is “* (*p < 0.05)”. In addition, in assay [2] (vs normal group, in words), the angiogenesis-promoting effects result is on record as “exhibited angiogenesis-promoting effects”.

As to `CC(C)C[C@H](NC(=O)[C@@H](NC(=O)CNC(=O)[C@@H]1CCCN1C(=O)[C@@H](C)NC(=O)[C@@H]1CCCN1C(=O)[C@H](CC(C)C)NC(=O)[C@H](C)N)[C@@H](C)O)C(=O)O` [Compound 5, H-Ala-Leu-Pro-D-Ala-Pro-Gly-Thr-Leu-OH] (H-ALP[dA]PGTL-OH), the Proliferation-promoting results in assay [1] is given as “** (**p < 0.01)”. Further, in assay [2] (setting [4]), the Cell count entry is reported as “* (*p < 0.05)” and the Number of intersections entry is recorded as “* (*p < 0.05)”. Moreover, in assay [2] (vs normal group, in words), the Branch length entry is listed as “no significant effects” and the number of junctions result is “promoting effects”. In assay [3], the Longest neurite length entry is on record as “*** (***p < 0.001)”, the “Neurite initiation points (branches)” value is “*** (***p < 0.001)”, the “Number of neurite terminals” value is recorded as “* (*p < 0.05)” and the Total neurite length entry was “** (**p < 0.01)”.

Consider `CC(C)C[C@H](NC(=O)[C@@H](NC(=O)CNC(=O)[C@H]1CCCN1C(=O)[C@H](C)NC(=O)[C@@H]1CCCN1C(=O)[C@H](CC(C)C)NC(=O)[C@H](C)N)[C@@H](C)O)C(=O)O` [Compound 6, H-Ala-Leu-Pro-Ala-D-Pro-Gly-Thr-Leu-OH] (H-ALPA[dP]GTL-OH), for which, in assay [1], the Proliferation-promoting results was “* (*p < 0.05)”. In addition, in assay [2] (setting [4]), the Branch length entry is reported as “* (*p < 0.05)” and the Number of intersections result was “** (**p < 0.01)”. Further, the angiogenesis-promoting effects result in assay [2] (vs normal group, in words) is listed as “exhibited angiogenesis-promoting effects”. In assay [3], the “neurite outgrowth (total neurite length, maximum neurite length, neurite terminals, neurite initiation points)” value (shortened to “neurite outgrowth”) was “tendency to promote neurite outgrowth”; the Longest neurite length result was “* (*p < 0.05)”; the “Neurite initiation points (branches)” value was “* (*p < 0.05)”; the Total neurite length result is listed as “* (*p < 0.05)”.

As to “H-AAPAPGTL-OH [Compound 16, H-Ala-Ala-Pro-Ala-Pro-Gly-Thr-Leu-OH]”, the Proliferation-promoting results in assay [1] is on record as “* (*p < 0.05)”. Further, in assay [3], the “mean fluorescence intensity of the neuronal marker protein βIII-tubulin” value (shortened to “mean fluorescence intensity”) is listed as “significant increase” and the Average fluorescence intensity result is “* (*p < 0.05)”.

As for “H-ALPAAGTL-OH [Compound 17, H-Ala-Leu-Pro-Ala-Ala-Gly-Thr-Leu-OH]”, the Proliferation-promoting results in assay [1] is “** (**p < 0.01)”. In assay [2] (setting [4]), the Cell count result was “** (**p < 0.01)”. In assay [2] (vs normal group, in words), the cell proliferation result is given as “only promoted cell proliferation”. Besides, the “mean fluorescence intensity” value in assay [3] was “tendency to enhance”.

For `CC(C)C[C@H](NC(=O)[C@@H](NC(=O)CNC(=O)[C@@H]1CCCN1)[C@@H](C)O)C(=O)O` [Compound 28, H-Pro-Gly-Thr-Leu-OH] (H-PGTL-OH), in assay [1], the Proliferation-promoting results is given as “* (*p < 0.05)” and the “number of BrdU positive cells” value is on record as “significant increase”. In addition, in assay [3], the “neurite outgrowth” value is “tendency to promote neurite outgrowth”; the “Number of neurite terminals” value is given as “* (*p < 0.05)”; the Total neurite length result is recorded as “** (**p < 0.01)”.

As to `C[C@H](N)C(=O)N1CCC[C@H]1C(=O)NCC(=O)N[C@H](C(=O)O)[C@@H](C)O` [Compound 37, H-Ala-Pro-Gly-Thr-OH] (H-APGT-OH), in assay [1], the Proliferation-promoting results is reported as “* (*p < 0.05)” and the “number of BrdU positive cells” value is reported as “significant increase”.

As for “H-LAPAPGTL-OH [Compound 19, H-Leu-Ala-Pro-Ala-Pro-Gly-Thr-Leu-OH]”, in assay [1], the Proliferation-promoting results was “** (**p < 0.01)”. In assay [2] (setting [4]), the Branch length entry was “* (*p < 0.05)” and the Number of intersections result was “* (*p < 0.05)”. For the same molecule, the angiogenesis-promoting effects result in assay [2] (vs normal group, in words) was “exhibited angiogenesis-promoting effects”.

As for “H-APGTL-OH [Compound 34, H-Ala-Pro-Gly-Thr-Leu-OH]”, in assay [2] (setting [4]), the Branch length entry was “** (**p < 0.01)”, the Cell count entry is “** (**p < 0.01)” and the Number of intersections entry is given as “** (**p < 0.01)”. The angiogenesis-promoting effects entry in assay [2] (vs normal group, in words) was “exhibited angiogenesis-promoting effects”. In assay [3], the “neurite outgrowth” value is listed as “promote neurite outgrowth”; the Longest neurite length entry was “* (*p < 0.05)”; the “Neurite initiation points (branches)” value is given as “* (*p < 0.05)”; the “Number of neurite terminals” value is listed as “** (**p < 0.01)”. Moreover, in assay [3], the Total neurite length result was “* (*p < 0.05)”, the “mean fluorescence intensity” value was “significant increase” and the Average fluorescence intensity entry is given as “* (*p < 0.05)”. Moreover, in assay [3] (conclusion based on the results of the two analytical methods), the “differentiation of NSCs into neuronal cells” value is listed as “promote the differentiation of NSCs into neuronal cells with stable effects”.

For `CC(C)C[C@H](NC(=O)[C@@H](NC(=O)CNC(=O)[C@@H]1CCCN1C(=O)[C@H](C)NC(=O)[C@H]1CCCN1C(=O)[C@H](CC(C)C)NC(=O)[C@H](C)N)[C@@H](C)O)C(=O)O` [Compound 4, H-Ala-Leu-D-Pro-Ala-Pro-Gly-Thr-Leu-OH] (H-AL[dP]APGTL-OH), in assay [2] (setting [4]), the Cell count result was “* (*p < 0.05)”. Besides, the cell proliferation result in assay [2] (vs normal group, in words) is reported as “only promoted cell proliferation”. For the same molecule, in assay [3], the Longest neurite length result is “*** (***p < 0.001)”, the “Neurite initiation points (branches)” value is on record as “** (**p < 0.01)”, the “Number of neurite terminals” value is given as “** (**p < 0.01)” and the Total neurite length entry was “** (**p < 0.01)”.

Take “H-ALPAPGAL-OH [Compound 18, H-Ala-Leu-Pro-Ala-Pro-Gly-Ala-Leu-OH]”: the Proliferation-promoting results in assay [1] was “*** (***p < 0.001)”. In assay [2] (setting [4]), the Branch length entry is reported as “* (*p < 0.05)”, the Cell count result was “* (*p < 0.05)” and the Number of intersections entry was “* (*p < 0.05)”. For the same molecule, in assay [2] (vs normal group, in words), the angiogenesis-promoting effects entry was “exhibited angiogenesis-promoting effects”.

For “H-LPAPGT-OH [Compound 32, H-Leu-Pro-Ala-Pro-Gly-Thr-OH]”, in assay [1], the Proliferation-promoting results was “* (*p < 0.05)” and the “number of BrdU positive cells” value is recorded as “significant increase”. Also, in assay [2] (setting [4]), the Branch length entry is reported as “* (*p < 0.05)” and the Cell count entry was “** (**p < 0.01)”.

As for “H-ALPAP-OH [Compound 30, H-Ala-Leu-Pro-Ala-Pro-OH]”, in assay [2] (setting [4]), the Branch length entry is recorded as “* (*p < 0.05)” and the Cell count entry is reported as “** (**p < 0.01)”. Also, in assay [3], the “neurite outgrowth” value is “tendency to promote neurite outgrowth”; the Longest neurite length entry was “* (*p < 0.05)”; the “mean fluorescence intensity” value is on record as “significant increase”; the Average fluorescence intensity entry is listed as “*** (***p < 0.001)”.

`CC(C)C[C@H](N)C(=O)N1CCC[C@H]1C(=O)N[C@@H](C)C(=O)N1CCC[C@H]1C(=O)O` [Compound 31, H-Leu-Pro-Ala-Pro-OH] (H-LPAP-OH): the Branch length entry in assay [2] (setting [4]) is listed as “** (**p < 0.01)”. The “mean fluorescence intensity” value in assay [3] is “tendency to enhance”.

In the case of “H-PAPGTL-OH [Compound 26, H-Pro-Ala-Pro-Gly-Thr-Leu-OH]”, in assay [2] (setting [4]), the Branch length entry is on record as “* (*p < 0.05)” and the Number of intersections result is recorded as “* (*p < 0.05)”. For the same molecule, the angiogenesis-promoting effects result in assay [2] (vs normal group, in words) is listed as “exhibited angiogenesis-promoting effects”. For the same molecule, the “mean fluorescence intensity” value in assay [3] is “tendency to enhance”.
